Measured values: publication PMC4447944 (The Journal of Biological Chemistry, 2015)

How the values were obtained:
[1] = target: T1, hCSNK1E (Homo sapiens, UniProt P49674); test: KINOMEscan; format: binding
T1 construct: purchased DiscoverX (KINOMEscan platform)

[2] = target: T2, hAXL (Homo sapiens, UniProt P30530); test: KINOMEscan; format: binding
T2 construct: purchased DiscoverX

[3] = target: T3, hTRKB (Homo sapiens, UniProt Q16620); test: KINOMEscan; format: binding
T3 construct: purchased DiscoverX

[4] = target: T4, hDMPK (Homo sapiens, UniProt Q09013); test: KINOMEscan; format: binding
T4 construct: purchased DiscoverX (KINOMEscan platform)

[5] = target: T5, hTYK2(JH1Dom.-catalytic) (Homo sapiens, UniProt P29597); test: KINOMEscan; format: binding
T5 construct: hTYK2(JH1Dom.-catalytic); purchased DiscoverX
T5 sequence (P29597 897-1176 limits assumed): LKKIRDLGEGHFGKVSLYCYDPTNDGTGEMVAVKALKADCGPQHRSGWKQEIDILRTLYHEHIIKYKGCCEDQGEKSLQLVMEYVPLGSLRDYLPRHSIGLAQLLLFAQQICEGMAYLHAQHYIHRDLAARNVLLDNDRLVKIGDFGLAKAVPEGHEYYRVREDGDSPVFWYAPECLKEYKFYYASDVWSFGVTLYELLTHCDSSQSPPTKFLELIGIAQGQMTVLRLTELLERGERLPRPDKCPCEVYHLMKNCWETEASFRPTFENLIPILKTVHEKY

[6] = target: T6, hAKT1 (Homo sapiens, UniProt P31749); test: KINOMEscan; format: binding
T6 construct: purchased DiscoverX

[7] = target: T7, hSIK (Homo sapiens, UniProt P57059); test: KINOMEscan; format: binding
T7 construct: purchased DiscoverX (KINOMEscan platform)

[8] = target: T8, hABL1(pQ252H) (Homo sapiens, UniProt P00519, Q252H); test: KINOMEscan; format: binding
T8 construct: purchased DiscoverX (KINOMEscan platform)

[9] = system: 454 kinases, 35 G protein-coupled receptors, 14 nuclear hormone receptors, and three cytochrome P450 enzymes; test: Off-target profiling summary; conditions: 35 GPCRs
Experimental: The compound was further profiled against 454 kinases, […], 14 nuclear hormone receptors, and three cytochrome P450 enzyme targets (supplemental Tables 2–4). The only inhibitory activity that was noted (at 98% at 10 μM) targeted the calcium mobilization antagonist mode of hADRα1A, a member of the G protein-coupled receptor family involved in epinephrine signaling.

[10] = target: T9, hABL1(pM351T) (Homo sapiens, UniProt P00519, M351T); test: KINOMEscan; format: binding
T9 construct: purchased DiscoverX (KINOMEscan platform)

[11] = target: T10, hABL1(H396P) (Homo sapiens, UniProt P00519, H396P); test: KINOMEscan; format: binding
T10 construct: purchased DiscoverX (KINOMEscan platform)

[12] = target: T11, hERβ (Homo sapiens, UniProt Q92731); test: Nuclear hormone receptor assay (Eurofins-CEREP); conditions: read-out: Relative IC50
T11 construct: Eurofins-CEREP

[13] = target: hFXR (Homo sapiens, UniProt Q96RI1); test: Nuclear hormone receptor assay (Eurofins-CEREP)
[14] = target: T12, hACVR2A (Homo sapiens, UniProt P27037); test: KINOMEscan; format: binding
T12 construct: purchased DiscoverX (KINOMEscan platform)

[15] = target: hADRβ2 (Homo sapiens, UniProt P07550); test: β-arrestin Antagonist (Eurofins-CEREP); conditions: read-out: % Effect, Inhibition
[16] = target: T13, hCHEK2 (Homo sapiens, UniProt O96017); test: KINOMEscan; format: binding
T13 construct: purchased DiscoverX

[17] = target: T14, hMAP4K4 (Homo sapiens, UniProt O95819); test: KINOMEscan; format: binding
T14 construct: purchased DiscoverX (KINOMEscan platform)

[18] = target: T15, hERK4 (Homo sapiens, UniProt P31152); test: KINOMEscan; format: binding
T15 construct: purchased DiscoverX
T15 sequence (P31152 whole entry): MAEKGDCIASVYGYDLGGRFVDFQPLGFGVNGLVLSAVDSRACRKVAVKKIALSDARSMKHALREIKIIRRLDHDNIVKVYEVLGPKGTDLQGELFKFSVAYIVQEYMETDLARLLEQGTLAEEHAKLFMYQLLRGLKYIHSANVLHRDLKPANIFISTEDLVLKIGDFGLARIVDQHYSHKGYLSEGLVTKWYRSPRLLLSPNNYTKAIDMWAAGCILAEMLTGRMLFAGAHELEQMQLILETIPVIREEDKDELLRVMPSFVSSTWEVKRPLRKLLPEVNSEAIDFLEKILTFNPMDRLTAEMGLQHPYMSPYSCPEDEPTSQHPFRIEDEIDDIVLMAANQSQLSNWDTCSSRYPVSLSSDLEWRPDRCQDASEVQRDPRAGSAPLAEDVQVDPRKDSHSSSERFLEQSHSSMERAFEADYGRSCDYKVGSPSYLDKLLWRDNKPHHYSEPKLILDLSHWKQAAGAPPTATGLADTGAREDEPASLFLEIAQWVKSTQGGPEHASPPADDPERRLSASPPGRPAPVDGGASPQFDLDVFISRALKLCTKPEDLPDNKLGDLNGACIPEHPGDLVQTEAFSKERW

[19] = target: T16, hFES (Homo sapiens, UniProt P07332); test: KINOMEscan; format: binding
T16 construct: purchased DiscoverX
T16 sequence (P07332 whole entry): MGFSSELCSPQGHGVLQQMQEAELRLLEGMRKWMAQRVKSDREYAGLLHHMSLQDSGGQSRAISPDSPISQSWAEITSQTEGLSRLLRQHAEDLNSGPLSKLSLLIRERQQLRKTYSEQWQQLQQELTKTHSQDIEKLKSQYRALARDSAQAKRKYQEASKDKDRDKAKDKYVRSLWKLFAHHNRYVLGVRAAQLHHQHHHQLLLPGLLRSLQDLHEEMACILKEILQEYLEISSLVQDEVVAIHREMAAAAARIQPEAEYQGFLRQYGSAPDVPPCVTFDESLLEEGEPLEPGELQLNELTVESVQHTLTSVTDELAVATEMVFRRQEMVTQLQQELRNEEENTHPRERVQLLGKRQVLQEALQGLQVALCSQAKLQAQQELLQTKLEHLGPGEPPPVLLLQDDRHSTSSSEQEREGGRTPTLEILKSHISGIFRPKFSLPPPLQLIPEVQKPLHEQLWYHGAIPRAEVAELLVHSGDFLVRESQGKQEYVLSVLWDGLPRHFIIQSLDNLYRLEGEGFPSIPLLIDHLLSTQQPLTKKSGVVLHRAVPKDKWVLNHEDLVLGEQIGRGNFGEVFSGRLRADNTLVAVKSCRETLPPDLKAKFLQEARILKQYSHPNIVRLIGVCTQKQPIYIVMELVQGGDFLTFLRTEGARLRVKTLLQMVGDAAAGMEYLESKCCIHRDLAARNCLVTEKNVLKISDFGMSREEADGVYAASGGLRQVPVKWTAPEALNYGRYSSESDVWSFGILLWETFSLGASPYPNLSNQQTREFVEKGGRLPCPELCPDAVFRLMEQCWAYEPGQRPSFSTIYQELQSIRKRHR

[20] = target: hOPRm1 (Homo sapiens, UniProt P35372); test: β-arrestin Antagonist (Eurofins-CEREP); conditions: read-out: % Effect, Inhibition
[21] = target: T17, hEPHA5 (Homo sapiens, UniProt P54756); test: KINOMEscan; format: binding
T17 construct: purchased DiscoverX

[22] = target: T18, CYP3A4 (Homo sapiens, UniProt P08684); test: Cytochrome p450 inhibition (Eurofins-CEREP); format: in vitro ADME
T18 construct: Eurofins-CEREP
T18 sequence (P08684 whole entry, species assumed): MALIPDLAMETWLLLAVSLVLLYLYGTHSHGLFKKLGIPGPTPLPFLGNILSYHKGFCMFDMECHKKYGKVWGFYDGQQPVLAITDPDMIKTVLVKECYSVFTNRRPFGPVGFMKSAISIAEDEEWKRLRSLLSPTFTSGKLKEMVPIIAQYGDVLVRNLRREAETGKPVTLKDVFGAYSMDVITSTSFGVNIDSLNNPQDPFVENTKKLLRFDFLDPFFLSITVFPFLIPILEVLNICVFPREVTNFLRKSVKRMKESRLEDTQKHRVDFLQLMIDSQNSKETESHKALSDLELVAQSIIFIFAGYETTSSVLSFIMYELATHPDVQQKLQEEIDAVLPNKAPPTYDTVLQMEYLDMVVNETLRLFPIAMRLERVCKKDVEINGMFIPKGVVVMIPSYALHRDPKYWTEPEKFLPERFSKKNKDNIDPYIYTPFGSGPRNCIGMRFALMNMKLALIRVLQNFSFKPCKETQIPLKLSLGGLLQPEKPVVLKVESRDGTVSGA

[23] = target: T19, hTRKC (Homo sapiens, UniProt Q16288); test: KINOMEscan; format: binding
T19 construct: purchased DiscoverX

[24] = target: T20, hFLT3 (Homo sapiens, UniProt P36888); test: KINOMEscan; format: binding
T20 construct: purchased DiscoverX
T20 sequence (P36888 27-993): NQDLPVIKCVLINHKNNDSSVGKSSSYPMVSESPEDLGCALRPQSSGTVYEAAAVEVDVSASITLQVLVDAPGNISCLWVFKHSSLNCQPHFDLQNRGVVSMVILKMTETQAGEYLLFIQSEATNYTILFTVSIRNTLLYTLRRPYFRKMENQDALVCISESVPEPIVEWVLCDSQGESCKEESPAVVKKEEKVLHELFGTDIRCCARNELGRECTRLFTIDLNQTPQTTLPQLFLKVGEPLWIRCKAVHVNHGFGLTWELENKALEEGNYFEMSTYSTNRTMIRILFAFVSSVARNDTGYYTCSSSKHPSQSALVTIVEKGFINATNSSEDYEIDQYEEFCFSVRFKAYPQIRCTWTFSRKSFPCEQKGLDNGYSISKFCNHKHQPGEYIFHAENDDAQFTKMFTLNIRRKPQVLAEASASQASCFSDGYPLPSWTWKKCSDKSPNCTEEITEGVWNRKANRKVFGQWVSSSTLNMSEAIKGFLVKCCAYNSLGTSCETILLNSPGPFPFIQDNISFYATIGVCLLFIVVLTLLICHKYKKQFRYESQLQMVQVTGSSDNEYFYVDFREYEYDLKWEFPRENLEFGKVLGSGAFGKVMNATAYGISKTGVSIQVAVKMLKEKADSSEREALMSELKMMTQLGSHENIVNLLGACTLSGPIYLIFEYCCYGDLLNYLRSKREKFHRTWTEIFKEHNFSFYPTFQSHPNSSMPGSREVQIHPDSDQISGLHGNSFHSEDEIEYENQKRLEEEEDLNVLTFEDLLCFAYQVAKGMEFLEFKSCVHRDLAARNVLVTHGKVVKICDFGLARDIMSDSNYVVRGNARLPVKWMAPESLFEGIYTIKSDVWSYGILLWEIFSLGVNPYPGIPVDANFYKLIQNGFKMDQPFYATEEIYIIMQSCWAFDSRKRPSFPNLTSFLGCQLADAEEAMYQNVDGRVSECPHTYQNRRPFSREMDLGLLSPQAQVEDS

[25] = target: T21, hMET(Y1235D) (Homo sapiens, UniProt P08581, Y1235D); test: KINOMEscan; format: binding
T21 construct: purchased DiscoverX

[26] = target: h5HT2B (Homo sapiens, UniProt P41595); test: Calcium Mobilization Agonist (Eurofins-CEREP); conditions: @ 13.3 μM
[27] = target: T22, hVDR (Homo sapiens, UniProt P11473); test: Nuclear hormone receptor assay (Eurofins-CEREP); conditions: read-out: Relative IC50
T22 construct: Eurofins-CEREP

[28] = target: hD2L (Homo sapiens, UniProt P14416); test: cAMP Potentiation (Eurofins-CEREP); conditions: @ 10 μM
Chain of hD2L (P14416 whole entry): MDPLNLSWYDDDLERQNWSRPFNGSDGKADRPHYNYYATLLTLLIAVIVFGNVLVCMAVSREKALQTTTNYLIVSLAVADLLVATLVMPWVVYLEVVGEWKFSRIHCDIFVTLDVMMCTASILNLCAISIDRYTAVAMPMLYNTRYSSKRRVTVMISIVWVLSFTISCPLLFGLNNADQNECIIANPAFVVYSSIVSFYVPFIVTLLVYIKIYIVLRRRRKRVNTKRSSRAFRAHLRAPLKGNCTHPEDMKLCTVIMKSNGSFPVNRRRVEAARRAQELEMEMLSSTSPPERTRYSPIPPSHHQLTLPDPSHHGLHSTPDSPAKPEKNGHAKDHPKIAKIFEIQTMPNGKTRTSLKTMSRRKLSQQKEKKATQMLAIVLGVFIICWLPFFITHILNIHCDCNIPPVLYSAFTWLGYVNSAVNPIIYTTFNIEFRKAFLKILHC

[29] = target: T23, hTEC (Homo sapiens, UniProt P42680); test: KINOMEscan; format: binding
T23 construct: purchased DiscoverX

[30] = target: T24, hEGFR(L747-S752del, P753S) (Homo sapiens, UniProt P00533, DEL747-752/P753S); test: KINOMEscan; format: binding
T24 construct: purchased DiscoverX

[31] = target: T25, hMARK3 (Homo sapiens, UniProt P27448); test: KINOMEscan; format: binding
T25 construct: purchased DiscoverX

[32] = target: T26, hABL1-p (Homo sapiens, UniProt P00519); test: KINOMEscan; format: binding
T26 construct: purchased DiscoverX (KINOMEscan platform)

[33] = system: MDA MB-231 cells; test: Proliferation assay (CellTiter-Glo); format: cell-based, human
Experimental: Cell viability was measured using CellTiter-Glo^TM (Promega) according to the manufacturer's instructions.

[34] = target: hADRβ1 (Homo sapiens, UniProt P08588); test: β-arrestin Antagonist (Eurofins-CEREP); conditions: read-out: % Effect, Inhibition
Chain of hADRβ1 (P08588 whole entry): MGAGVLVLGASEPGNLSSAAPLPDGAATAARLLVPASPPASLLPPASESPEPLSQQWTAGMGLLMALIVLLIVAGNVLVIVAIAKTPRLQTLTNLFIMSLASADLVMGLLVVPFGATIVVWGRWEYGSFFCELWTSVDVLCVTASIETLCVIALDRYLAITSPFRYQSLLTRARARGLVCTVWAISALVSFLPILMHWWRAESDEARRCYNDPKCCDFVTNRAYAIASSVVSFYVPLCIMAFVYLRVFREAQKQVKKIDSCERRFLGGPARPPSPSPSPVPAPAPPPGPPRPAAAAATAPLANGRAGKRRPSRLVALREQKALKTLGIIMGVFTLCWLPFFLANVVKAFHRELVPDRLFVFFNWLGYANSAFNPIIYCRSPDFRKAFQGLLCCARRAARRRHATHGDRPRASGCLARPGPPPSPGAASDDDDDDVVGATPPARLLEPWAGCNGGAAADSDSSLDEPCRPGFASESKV

[35] = target: T27, hYSK1 (Homo sapiens, UniProt O00506); test: KINOMEscan; format: binding
T27 construct: purchased DiscoverX
T27 sequence (O00506 whole entry): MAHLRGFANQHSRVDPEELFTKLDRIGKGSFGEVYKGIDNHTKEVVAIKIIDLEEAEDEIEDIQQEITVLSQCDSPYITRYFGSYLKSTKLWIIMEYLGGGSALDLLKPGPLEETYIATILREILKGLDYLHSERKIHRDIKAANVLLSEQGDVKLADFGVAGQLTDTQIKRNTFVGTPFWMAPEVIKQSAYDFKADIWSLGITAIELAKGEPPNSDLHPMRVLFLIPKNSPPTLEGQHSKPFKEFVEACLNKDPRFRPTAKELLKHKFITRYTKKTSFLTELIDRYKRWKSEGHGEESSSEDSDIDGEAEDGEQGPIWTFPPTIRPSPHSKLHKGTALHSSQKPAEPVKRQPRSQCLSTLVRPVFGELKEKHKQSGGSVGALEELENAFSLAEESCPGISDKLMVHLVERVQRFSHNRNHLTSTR

[36] = target: T28, hPPARγ (Homo sapiens, UniProt P37231); test: Nuclear hormone receptor assay (Eurofins-CEREP); conditions: read-out: Relative IC50
T28 construct: Eurofins-CEREP
T28 sequence (P37231 whole entry): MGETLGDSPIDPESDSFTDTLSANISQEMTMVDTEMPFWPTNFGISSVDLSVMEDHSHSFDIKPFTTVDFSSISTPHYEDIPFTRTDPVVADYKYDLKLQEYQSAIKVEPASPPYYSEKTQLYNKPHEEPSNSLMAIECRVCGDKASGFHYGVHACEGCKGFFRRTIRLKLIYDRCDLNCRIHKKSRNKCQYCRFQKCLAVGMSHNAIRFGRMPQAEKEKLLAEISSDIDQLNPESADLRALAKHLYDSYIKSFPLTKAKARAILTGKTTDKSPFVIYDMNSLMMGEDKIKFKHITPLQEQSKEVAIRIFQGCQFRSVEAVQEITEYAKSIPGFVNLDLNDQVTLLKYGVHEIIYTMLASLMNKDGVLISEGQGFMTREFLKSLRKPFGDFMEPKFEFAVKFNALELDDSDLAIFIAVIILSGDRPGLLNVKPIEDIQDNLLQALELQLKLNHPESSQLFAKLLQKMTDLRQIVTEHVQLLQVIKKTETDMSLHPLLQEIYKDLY

In the case of `Cc1cn(CCN2CCN(c3ccccc3-c3cc(C#N)cc(C(=O)NCCCN4CCCC4)c3)CC2)c2ccccc12` [LLY-507, 3-cyano-5-{2-[4-[2-(3-methylindol-1-yl)ethyl]piperazin-1-yl]-phenyl}-N-[(3-pyrrolidin-1-yl)propyl]benzamide], the IC50 [1] is reported as > 20 µM, the IC50 [2] is reported as > 20 µM and the IC50 [3] is reported as > 20 µM. For the same compound, the IC50 [4] was > 20 µM, the IC50 [5] was > 20 µM and the IC50 [6] was > 20 µM. For the same compound, the IC50 [7] was > 20 µM, the IC50 [8] was > 20 µM and the “inactive against off-target panels” value [9] was > 20 µM. The IC50 [10] was > 20 µM, the IC50 [11] was > 20 µM and the IC50 [12] was > 10 µM. The IC50 [13] was > 10 µM, the IC50 [14] was > 20 µM and the inhibition at 10 µM [15] was -15.6%. The IC50 [16] was > 20 µM, the IC50 [17] was > 20 µM and the IC50 [18] was > 20 µM. The IC50 [19] was > 20 µM, the inhibition at 1 µM [20] was -3.9% and the IC50 [21] was > 20 µM. The “% inhibition @ 10 μM” value [22] was 69.1%, the IC50 [23] was > 20 µM and the IC50 [24] was > 20 µM. The IC50 [25] was > 20 µM, the “% Effect, Stimulation” value [26] was 3.4% and the IC50 [27] was > 10 µM. The “% Effect, Potentiation” value [28] was -27.5%, the IC50 [29] was > 20 µM and the IC50 [30] was > 20 µM. The IC50 [31] was > 20 µM, the IC50 [32] was > 20 µM and the “increase in sensitivity at 7 days compared with 3 to 4-day treatment” value [33] was > 5 fold. The inhibition at 10 µM [34] was -6%, the IC50 [35] was > 20 µM and the IC50 [36] was > 10 µM.
